This note sets out measurements from patent publication US10351522B2, “Sulfonamide derivative and pharmaceutically acceptable acid addition salt thereof” (UNIVERSITY OF TSUKUBA, priority 2015, dated 2019).

The target in one assay is T1, human OX1R (Homo sapiens, UniProt O43613).
T1 construct: expressed in transfected cells; host or cells: CHO (Chinese hamster ovary) cells, line CHOOX1R, co-expressing NFAT-luciferase
T1 sequence (O43613 1-425): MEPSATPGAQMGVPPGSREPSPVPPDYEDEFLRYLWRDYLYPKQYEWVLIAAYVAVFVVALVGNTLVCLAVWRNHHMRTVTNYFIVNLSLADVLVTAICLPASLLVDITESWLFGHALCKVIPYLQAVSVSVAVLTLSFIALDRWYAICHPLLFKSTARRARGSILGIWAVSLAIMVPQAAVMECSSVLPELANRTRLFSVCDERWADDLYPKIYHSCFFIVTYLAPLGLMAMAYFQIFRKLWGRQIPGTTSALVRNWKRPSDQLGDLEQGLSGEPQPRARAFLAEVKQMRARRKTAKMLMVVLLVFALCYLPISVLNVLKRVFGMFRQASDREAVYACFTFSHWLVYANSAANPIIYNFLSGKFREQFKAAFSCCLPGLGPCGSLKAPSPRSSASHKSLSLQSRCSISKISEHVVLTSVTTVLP
Briefly: Agonist activity against OX1R: intracellular calcium (Fura-2AM, FDSS7000) in CHOOX1R cells. The class given is cell-based. Conditions: relative to orexin-A as full agonist (100%); for Emax at 0.1 µM / Emax at 1 µM / Emax at 10 µM: read-out: Response (%) OX1R. A digest of the protocol: (§1)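 CHO cells stably expressing human OX1R or OX2R (plus NFAT-luciferase) were loaded with 5 μM Fura-2AM for 60 min, then given compound at 10^−7 to 10^−5 M final (1% DMSO). Calcium change read as 340/380 nm excitation fluorescence ratio; response expressed as % of orexin-A maximal activity at 10, 1.0 and 0.1 μM.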
For orientation: Calcium assays in cells follow changes in intracellular calcium, usually with a dye or a luminescent sensor.

In another assay the target is T2, human OX2R (Homo sapiens, UniProt O43614).
T2 construct: expressed in transfected cells; host or cells: CHO (Chinese hamster ovary) cells, line CHOOX2R, co-expressing NFAT-luciferase
T2 sequence (O43614 1-444): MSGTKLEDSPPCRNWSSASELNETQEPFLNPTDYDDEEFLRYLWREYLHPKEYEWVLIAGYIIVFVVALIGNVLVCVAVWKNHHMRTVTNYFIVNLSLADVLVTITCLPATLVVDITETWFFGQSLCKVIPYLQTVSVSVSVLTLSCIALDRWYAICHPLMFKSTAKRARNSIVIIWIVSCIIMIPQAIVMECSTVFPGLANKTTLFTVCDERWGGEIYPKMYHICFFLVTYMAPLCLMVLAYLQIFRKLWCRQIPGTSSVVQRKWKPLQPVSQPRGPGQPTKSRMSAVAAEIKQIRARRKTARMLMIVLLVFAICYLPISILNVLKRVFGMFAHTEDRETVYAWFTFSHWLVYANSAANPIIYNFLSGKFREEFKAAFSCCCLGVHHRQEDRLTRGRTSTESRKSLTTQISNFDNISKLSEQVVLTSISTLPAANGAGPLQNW
Briefly: Agonist activity against OX2R: intracellular calcium (Fura-2AM, FDSS7000) in CHOOX2R cells. In kind it is cell-based. Conditions: relative to orexin-A as full agonist (100%). A digest of the protocol: as §1

SMILES strings stand for the structures. Read-outs that look alike come from different tables or passages of the source. Some results are limits rather than exact numbers.

Regarding `COc1ccc(-c2cccc(C(=O)N(C)C)c2)cc1S(=O)(=O)Nc1cccc(NC(=O)Nc2ccccc2)c1` [Example 37, 4′-methoxy-N,N-dimethyl-3′-(N-(3-(3-phenylureido)phenyl)sulfamoyl)-[1,1′-biphenyl]-3-carboxamide], on human OX1R (0.1 μM test compound), the Emax at 0.1 µM is under 5%. In addition, at human OX1R (1.0 μM test compound), the Emax at 1 µM was under 5%. Besides, the Emax at 10 µM at human OX1R (10 μM test compound) is under 5%. Moreover, the “Response (%) OX2R” value is listed as 55% on human OX2R (0.1 μM test compound), 88% on human OX2R (1.0 μM test compound) and 81% at human OX2R (10 μM test compound).

`COc1ccc(-c2cccc(C(=O)N(C)C)c2)cc1S(=O)(=O)Nc1cccc(NC(=O)c2ccncc2)c1` [Example 4]: the figures for the “Response (%) OX1R” value on human OX1R (0.1 μM test compound), at human OX1R (1.0 μM test compound) and on human OX1R (10 μM test compound) were 10%, 8% and under 5%, respectively. In addition, the “Response (%) OX2R” value on human OX2R (0.1 μM test compound) is listed as under 5%; on human OX2R (1.0 μM test compound), under 5%; at human OX2R (10 μM test compound), 16%.

Turning to `COc1ccc(-c2cccc(C(=O)N(C)C)c2)cc1S(=O)(=O)Nc1cccc(NS(=O)(=O)c2cccc(F)c2)c1` [Example 88], the “Response (%) OX1R” value is recorded as 7% at human OX1R (test compound 0.1 μM), 7% on human OX1R (test compound 1.0 μM) and 9% at human OX1R (test compound 10 μM). Moreover, the figures for the “Response (%) OX2R” value on human OX2R (test compound 0.1 μM), on human OX2R (test compound 1.0 μM) and on human OX2R (test compound 10 μM) were 15%, 13% and 13%, respectively.

As to `CCN(Cc1cccnc1)C(=O)c1ccc(OC)c(S(=O)(=O)Nc2cccc(NC(=O)Nc3ccccc3N(C)C)c2)c1` [Example 113], the “Response (%) OX1R” value on human OX1R (test compound 0.1 μM), at human OX1R (test compound 1.0 μM) and at human OX1R (test compound 10 μM) was under 5% throughout. The “Response (%) OX2R” value on human OX2R (test compound 0.1 μM) is under 5%; on human OX2R (test compound 1.0 μM) it was 6%; on human OX2R (test compound 10 μM), 73%.

`COc1ccc(-c2cccc(C(=O)N(C)C)c2)cc1S(=O)(=O)Nc1cccc(NC(=O)Nc2ccncc2)c1` [Example 70]: the “Response (%) OX1R” value at human OX1R (0.1 μM test compound), on human OX1R (1.0 μM test compound) and on human OX1R (10 μM test compound) was 6% throughout. The figures for the “Response (%) OX2R” value at human OX2R (0.1 μM test compound), on human OX2R (1.0 μM test compound) and on human OX2R (10 μM test compound) were 9%, 9% and 46%, respectively.

Take `COc1ccc(C(=O)NCCCNC(=O)OC(C)(C)C)cc1S(=O)(=O)Nc1cccc(NC(=O)Nc2ccccc2N(C)C)c1` [Example 112, tert-butyl (3-(3-(N-(3-(3-(2-(dimethylamino)phenyl)ureido)phenyl)sulfamoyl)-4-methoxybenzamido)propyl)carbamate]: the Emax at 0.1 µM on human OX1R (test compound 0.1 μM) is under 5%. Moreover, at human OX1R (test compound 1.0 μM), the Emax at 1 µM is under 5%. For the same compound, the Emax at 10 µM on human OX1R (test compound 10 μM) is under 5%. The “Response (%) OX2R” value is under 5% at human OX2R (test compound 0.1 μM), 26% at human OX2R (test compound 1.0 μM) and 69% at human OX2R (test compound 10 μM).

Regarding `COc1ccc(-c2cccc(C(=O)N(C)C)c2)cc1S(=O)(=O)Nc1ccccc1NC(=O)Nc1cccc(N(C)C)c1` [Example 121], the “Response (%) OX1R” value at human OX1R (test compound 0.1 μM) was under 5%; on human OX1R (test compound 1.0 μM), under 5%; at human OX1R (test compound 10 μM) it was 10%. In addition, the entries for the “Response (%) OX2R” value at human OX2R (test compound 0.1 μM), on human OX2R (test compound 1.0 μM) and at human OX2R (test compound 10 μM) were 7%, 47% and 104%, respectively.

With `COc1ccc(-c2cccc(C(=O)N(C)C)c2)cc1S(=O)(=O)Nc1cccc(NC(=O)Nc2ccc(C)cc2)c1` [Example 56], the “Response (%) OX1R” value on human OX1R (0.1 μM test compound) is under 5%; on human OX1R (1.0 μM test compound), under 5%; on human OX1R (10 μM test compound), 19%. Also, the “Response (%) OX2R” value at human OX2R (0.1 μM test compound) is 95%; on human OX2R (1.0 μM test compound), 96%; on human OX2R (10 μM test compound), 82%.

Regarding `COc1ccc(C(=O)NCc2cccnc2)cc1S(=O)(=O)Nc1cccc(NC(=O)Nc2ccc(N(C)C)cc2)c1` [Example 109], the “Response (%) OX1R” value amounted to 8% at human OX1R (test compound 0.1 μM), 9% on human OX1R (test compound 1.0 μM) and 7% on human OX1R (test compound 10 μM). The “Response (%) OX2R” value at human OX2R (test compound 0.1 μM) was 7%; on human OX2R (test compound 1.0 μM) it was 6%; on human OX2R (test compound 10 μM) it was 39%.

`CCN(Cc1ccccc1)C(=O)c1ccc(OC)c(S(=O)(=O)Nc2cccc(NC(=O)Nc3ccc(N(C)C)cc3)c2)c1` [Example 110]: the “Response (%) OX1R” value on human OX1R (test compound 0.1 μM), on human OX1R (test compound 1.0 μM) and on human OX1R (test compound 10 μM) was under 5% throughout. The results for the “Response (%) OX2R” value on human OX2R (test compound 0.1 μM), on human OX2R (test compound 1.0 μM) and at human OX2R (test compound 10 μM) were 38%, 86% and 109%, respectively.

In the case of `COc1ccc(-c2cccc(C(=O)N(C)C)c2)cc1S(=O)(=O)Nc1cccc(NC(=S)Nc2cccc(C)c2)c1` [Example 76], the figures for the “Response (%) OX1R” value at human OX1R (0.1 μM test compound), on human OX1R (1.0 μM test compound) and at human OX1R (10 μM test compound) were under 5%, 20% and 55%, respectively. Besides, the entries for the “Response (%) OX2R” value on human OX2R (0.1 μM test compound), at human OX2R (1.0 μM test compound) and at human OX2R (10 μM test compound) were 93%, 90% and 89%, respectively.

For the compound `COc1ccc(-c2cccc(C(=O)N(C)C)c2)cc1S(=O)(=O)Nc1cccc(NC(=O)Nc2ccc(NC(=N)NC(=O)OC(C)(C)C)cc2)c1` [Example 59], the “Response (%) OX1R” value on human OX1R (0.1 μM test compound), at human OX1R (1.0 μM test compound) and on human OX1R (10 μM test compound) was under 5% throughout. In addition, the “Response (%) OX2R” value is on record as under 5% on human OX2R (0.1 μM test compound), 18% on human OX2R (1.0 μM test compound) and 52% at human OX2R (10 μM test compound).

For `COc1ccccc1CNc1cccc(NS(=O)(=O)c2cc(-c3cccc(C(=O)N(C)C)c3)ccc2OC)c1` [Example 21], the “Response (%) OX1R” value on human OX1R (0.1 μM test compound) is given as under 5%; at human OX1R (1.0 μM test compound), under 5%; on human OX1R (10 μM test compound) it was 12%. Besides, the “Response (%) OX2R” value at human OX2R (0.1 μM test compound) was under 5%; on human OX2R (1.0 μM test compound) it was 37%; at human OX2R (10 μM test compound), 54%.

On to `COc1ccc(-c2cccc(C(=O)N(C)C)c2)cc1S(=O)(=O)Nc1cccc(NS(=O)(=O)N(C)C)c1` [Example 87], for which the “Response (%) OX1R” value at human OX1R (test compound 0.1 μM), at human OX1R (test compound 1.0 μM) and on human OX1R (test compound 10 μM) was under 5% in each case. Further, the “Response (%) OX2R” value at human OX2R (test compound 0.1 μM) is reported as under 5%; at human OX2R (test compound 1.0 μM), 10%; on human OX2R (test compound 10 μM), 56%.

With `COc1ccc(-c2cccc(C(=O)N(C)C)c2)cc1S(=O)(=O)Nc1cccc(NCc2ccccc2)c1` [Example 20, 3′-(N-(3-(benzylamino)phenyl)sulfamoyl)-4′-methoxy-N,N-dimethyl-[1,1′-biphenyl]-3-carboxamide], the Emax at 0.1 µM on human OX1R (0.1 μM test compound) is under 5%. Besides, on human OX1R (1.0 μM test compound), the Emax at 1 µM is under 5%. Besides, the Emax at 10 µM on human OX1R (10 μM test compound) was found to be 17%. In addition, the “Response (%) OX2R” value at human OX2R (0.1 μM test compound) is under 5%; at human OX2R (1.0 μM test compound), 51%; on human OX2R (10 μM test compound) it was 78%.

Take `COc1ccc(-c2cccc(C(=O)N(C)C)c2)cc1S(=O)(=O)Nc1cccc(N2CCN(c3ccc(N(C)C)cc3)C2=O)c1` [Example 131]: the figures for the “Response (%) OX1R” value on human OX1R (test compound 0.1 μM), at human OX1R (test compound 1.0 μM) and at human OX1R (test compound 10 μM) were under 5%, under 5% and 18%, respectively. Also, the results for the “Response (%) OX2R” value on human OX2R (test compound 0.1 μM), on human OX2R (test compound 1.0 μM) and at human OX2R (test compound 10 μM) were 43%, 96% and 101%, respectively.

Turning to `COc1ccc(-c2cccc(C(=O)N(C)C)c2)cc1S(=O)(=O)Nc1cccc(NC(=O)Nc2ccc(NC(=N)N)cc2)c1` [Example 60], the “Response (%) OX1R” value at human OX1R (0.1 μM test compound), on human OX1R (1.0 μM test compound) and at human OX1R (10 μM test compound) was under 5% each time. The “Response (%) OX2R” value on human OX2R (0.1 μM test compound) was under 5%; on human OX2R (1.0 μM test compound), under 5%; on human OX2R (10 μM test compound), 31%.

`COc1ccc(-c2cccc(C(=O)N(C)C)c2)cc1S(=O)(=O)Nc1cccc(NC(=O)Nc2cccc(N)c2)c1` [Example 63]: the “Response (%) OX1R” value on human OX1R (0.1 μM test compound) was determined as 9%; at human OX1R (1.0 μM test compound) it was 9%; at human OX1R (10 μM test compound) it was 7%. The entries for the “Response (%) OX2R” value on human OX2R (0.1 μM test compound), on human OX2R (1.0 μM test compound) and at human OX2R (10 μM test compound) were 8%, 55% and 66%, respectively.
